# Test results from patent US20230321105A1, “CELL SIGNAL DETECTION AND MODULATION IN DISEASE” (Washington University, priority 2022, published 2023).
# Key:
# [1] = system: LL2/B3a tumors; experiment: LL2/B3a tumors treated with Serpinb3a siRNA with or without 10 Gy RT; type: in vivo, C57/BL6 mice
# Experimental: Single-cell suspensions were blocked with either Human TruStain FcX Solution (422301, Biolegend) or mouse TruStain FcX PLUS (anti-mouse CD16/32) Antibody (S17011E, Biolegend) to avoid nonspecific Fc receptor binding and stained with LIVE/DEADFixable Dead Cell Stain Kit (MACS) to exclude dead cells. For surface staining, cells were incubated with the appropriate antibodies for 30 min at 4° C. Intracellular cytokine and nuclear staining was performed after surface staining using Cyto-Fast Fix/Perm Buffer Set and True-Nuclear Transcription Factor Buffer Set, respectively (BioLegend). Data analysis including viSNE and FlowJo plugin FlowSOM were performed on FlowJo v.10 (TreeStar). A range of 20,000 to 60,000 live cells was acquired and individual flow cytometry data from each group were combined into a single data file for generating viSNE. Color-coded subpopulations were gated by pre-defined markers for each immune cell type and overlaid to the viSNE plots for total CD45+ cells from tumors. All flow cytometry gating plots, histograms, and statistics were generated on FlowJo.
# For xenograft models, female athymic nude mice aged 6-7 weeks old (Charles River) were injected subcutaneously with 5×10^6 Caski/Ctrl or Caski/B3 cells suspended in serum-free IMDM and 50% Matrigel Basement Membrane Matrix (Corning) to a final volume of 100 μl on their flank. For immunocompetent models, female C57/BL6 mice aged 7-8 weeks (Charles River) were injected subcutaneously with 5×10^5 LL2/Ctrl or LL2/B3a cells suspended in 100 μl of PBS into the right flank. To deplete myeloid cells, mice were treated with anti-CD11b antibody (Ultra-LEAF purified anti-mouse CD11b, Biolegend) or isotype IgG2b as control (Ultra-LEAF purified rat IgG2b, Biolegend). Antibodies were administered through intraperitoneal injection at the initial dose of 300 μg in 150 μl PBS on day 10 post-tumor inoculation, and a subsequent dose of 150 μg in 100 μl PBS every three days. To knock down Serpinb3a, mice received either mSerpinb3a siRNA (5′-ACAUCGAAUUUAACUUCAUtt-3′; 5′-AUGAAGUUAAAUUCGAUGUtt-3′; ID:s73336, Thermo) or control siRNA (Ambion in vivo negative control #1 Thermo) complexed with Invivofectamine 3 (Thermo Fisher) as per manufacturer's protocol. Mice received three intratumoral injections of 10 μg siRNA on days 9, 11, and 13 post-tumor inoculation before radiation treatment performed on day 14. On days 16 and 19, mice received 20 μg siRNA via intraperitoneal injection. For radiation treatment, mice were randomized to receive sham or 10Gy RT using the Xstrahl Small Animal Radiation Research Platform (SARRP) 200 (Xstrahl Life Sciences). Tumor volume was measured twice weekly and calculated by (length×width2)/2. For tissue dissociation, tumors were manually dissected and digested with 1 mg/ml Collagenase, 0.5 mg/ml hyaluronidase, and 10 mg/mL DNase I type IV (Sigma), and transferred to a tissue disaggregator (Medicon, BectonDickinson) using a CTSV (Medimachine II, BectonDickinson) and tissue homogenates were filtered through a 100 μm strainer. Spleens were dissociated by being pressed through a 70 μm filter. Animal work was approved by the Washington University Institute Institutional Animal Care and Use Committee (Protocol #20-0470).
# T cells isolated using MojoSort mouse CD3 T cell isolation kit (Biolegend) were labeled with CellTrace violet and activated with CD3/CD28 Dynabeads (Thermo Fisher) for 4 days to evaluate proliferation. To examine TNF and IFNr, T cells were stimulated with 500× Cell Activation Cocktail containing 40.5 μM phorbol-12-myristate 13-acetate (PMA) and 669.3 μM ionomycin (Biolegend) in the presence of 5 μg/mL BFA (Biolegend) for 5 h and stained with surface/intracellular markers for FACS analysis.
# Cell culture supernatant was collected at 48 h after fresh media was added to the adherent cells in a monolayer. Cell lysates were prepared using NP-40 buffer (Alfa Aesar). […]
# [2] = system: Serpinb3a; experiment: Knockdown of Serpinb3a in tumors by qPCR; type: in vivo, mouse; conditions: siB3-treated LL2/B3a tumors; average
# Experimental: For xenograft models, female athymic nude mice aged 6-7 weeks old (Charles River) were injected subcutaneously with 5×10^6 Caski/Ctrl or Caski/B3 cells suspended in serum-free IMDM and 50% Matrigel Basement Membrane Matrix (Corning) to a final volume of 100 μl on their flank. For immunocompetent models, female C57/BL6 mice aged 7-8 weeks (Charles River) were injected subcutaneously with 5×10^5 LL2/Ctrl or LL2/B3a cells suspended in 100 μl of PBS into the right flank. To deplete myeloid cells, mice were treated with anti-CD11b antibody (Ultra-LEAF purified anti-mouse CD11b, Biolegend) or isotype IgG2b as control (Ultra-LEAF purified rat IgG2b, Biolegend). […] Tumor volume was measured twice weekly and calculated by (length×width2)/2. […]
# Lipofectamine RNAiMAX (Thermo Fisher) was used for STAT1 siRNA (ID: SASI_Hs02_00343387, SASI_Hs01_00098937, Sigma), STAT3 siRNA (ID: SASI_Hs01_00121206, SASI_Hs01_00061860, Sigma), and negative control siRNA (SIC001, Sigma) transfection, according to the manufacturer's instructions. […] Quantitative polymerase chain reaction (qPCR) was performed using PowerUp SYBR green PCR Master Mix (Applied Biosystems) and the Applied Biosystems 7900 Fast real-time PCR system and software. Each sample was performed in triplicate, gene expression levels were normalized to GAPDH, and fold changes were calculated using the ΔΔCt method. […]
# [3] = system: pSTAT3 (Tyr705) and CD11b; experiment: Immunohistochemistry of mouse tumors treated with Serpinb3a siRNA; type: in vivo
# Experimental: Pretreatment serum SCCA was evaluated by ARUP National Reference Laboratory (Salt Lake City, UT, USA) using ELISA, and tissue microarrays were generated from untreated human tumor specimens. TMA sections were sent to HistoWiz Inc for IHC staining for CD11b (1:100, Abcam ab224800) and IHC for pSTAT3 (1:200, Sigma SAB4300033) was performed by Washington University AMP Core Labs. Mouse tumor sections were stained with pSTAT3 (1:150, Invitrogen PA5-121259) and CD11b (1:500, Invitrogen PA5-79532), using a Pierce peroxidase IHC detection kit (Thermo Fisher). QuPath V0.3.2 software was used for automated analysis using surface and cytoplasmic staining to determine the percent cells positive for CD11b. The staining scores for pSTAT3 were evaluated by the pathologist and calculated by (% of positively stained tumor cells x staining intensity ranged from 0-3). Values from at least two cores from each sample were considered valid and an average score was taken.
# [4] = system: glioma; conditions: STAT3 inhibitor and irradiation vs either treatment alone; glioma preclinical study; cited from earlier work
Compound,PD-1 in CD8+ T cells ([1]; RT/siB3 vs RT/siNC),tumor growth inhibition ([1]; combination of Serpinb3a knockdown with 10 Gy RT (RT/siB3)),tumor growth ([1]; sham siB3-treated vs sham siNC-treated tumors),CTLA-4 in CD8+ T cells ([1]; sham/RT siB3 vs siNC tumors),ratio of CD8/Treg ([1]; sham/RT siB3 vs siNC tumors),CD8+ T cells in tumors ([1]; sham/siB3 tumors),"M-MDSCs, PMN-MDSCs, and M2 macrophages in tumors ([1]; sham/siB3 vs sham/siNC tumors, flow cytometry)","expression of CXCL1, and S100A8/A9 in tumor homogenates ([1]; sham/siNC vs. sham/siB3, ELISA)",proliferative capacity of CD8+ T cells upon anti-CD3/28 stimulation ([1]; siB3 tumor-derived vs siNC tumor-derived),expression of granzyme B and perforin in CD8+ T cells ([1]; siB3 tumors),expression of granzyme B and perforin in CD8+ T cells ([1]; siB3 tumors with radiation treatment),decrease of Serpinb3a RNA expression in tumors [2] [%],pSTAT3 expression (immunostaining of pSTAT3(Tyr705)) ([3]; LL2/B3a+siB3 tumors),CD11b+ myeloid cell infiltration ([3]; Serpinb3a knockdown tumors),survival [4]
"siB3: mSerpinb3a siRNA 5′-ACAUCGAAUUUAACUUCAUtt-3′; 5′-AUGAAGUUAAAUUCGAUGUtt-3′; ID:s73336, Thermo, complexed with Invivofectamine 3 (sense ACAUCGAAUUUAACUUCAUTT; antisense AUGAAGUUAAAUUCGAUGUTT; Invivofectamine 3 complex, further chemistry not given here)",lower,more significant tumor growth inhibition,Reduced tumor growth,lower,higher ratio,increase,significant reduction,significant decrease,markedly higher proliferative capacity,increased expression,further enhanced,65,significantly reduced,reduced,–
C[C@H](NC(=O)/C(C#N)=C/c1cccc(Br)n1)c1ccccc1 [WP1066],–,–,–,–,–,–,–,–,–,–,–,–,–,–,enhanced survival
